Laboratory results as given in patent US20020115723A1, “Cysteine derivatives” (AJINOMOTO CO., INC., priority 1998, published 2002).
Where “and” joins values, the source holds several entries; their conditions need not be identical. Equal entries are not always repeated.

Key:
NF-κB = assay: Test on the function of inhibiting the activation of NF-κB induced by ultraviolet rays (gel shift assay); format: cell-based, human; details: human epidermal cells, UVB 50 mJ/cm^2
Procedure: Test on the Function of Inhibiting the Activation of NF-κB Induced by Ultraviolet Rays.
After 18 hours had elapsed, the culture medium was substituted by a phenol red-free medium. The cells were exposed to ultraviolet rays (UVB: 50 mJ/cm^2) from an ultraviolet irradiator “Dermaray M-DMR-80” (ex Toshiba Medical Supply Co., Ltd.). After 4 to 5 hours had elapsed, the cells were collected, and the nucleoprotein was extracted therefrom in a manner known per se in the art. From the resulting nucleoprotein, the activated NF-κB was detected in accordance with the gel shift assay. The amount of the NF-κB was determined by measuring the radioactive value of the NF-κB band with the use of a bioimaging analyzer “BAS 2000” (ex Fuji Film Co., Ltd.).
The inhibition ratio of the activation of the NF-κB of the test compounds was calculated from the below-described formula (1).
Inhibition ratio of NF-κB activation (%)={1−(A1-A3)/(A2-A3)}×100 (1)
A1: radioactive value of the NF-κB upon addition of a test compound
A2: radioactive value of NF-κB when a test compound is not added
A3: radioactive value of NF-κB when a test compound is not added and is not exposed to ultraviolet rays.

human epidermal cells = assay: Toxicity to the cultured human epidermal cells seen in the NF-κB / AP-1 activation tests; format: cell-based
Procedure: Each of the test compounds was added to a culture plate at a concentration within an extent not causing a damage to the human epidermal cells which had reached the confluent stage in the culture plate. After 18 hours had elapsed, the culture medium was substituted by a phenol red-free medium. The cells were exposed to ultraviolet rays (UVB: 50 mJ/cm^2) from an ultraviolet irradiator “Dermaray M-DMR-80” (ex Toshiba Medical Supply Co., Ltd.). After 4 to 5 hours had elapsed, the cells were collected, and the nucleoprotein was extracted therefrom in a manner known per se in the art. From the resulting nucleoprotein, the activated NF-κB was detected in accordance with the gel shift assay. The amount of the NF-κB was determined by measuring the radioactive value of the NF-κB band with the use of a bioimaging analyzer “BAS 2000” (ex Fuji Film Co., Ltd.).
(§1) In a similar manner to Test Example 1, a nucleoprotein was obtained. Then, the activated AP-1 was detected by the gel shift assay. The radioactive value of the AP-1 band was measured as in Test Example 1, whereby the amount of the AP-1 was determined. The AP-1 activation inhibiting ratio of the test compounds was calculated by the below-described equation (2). The results of the test compounds according to the present invention are shown below in Table 4a, while those of the comparative compounds are shown below in Table 4b.

Hairless mice (SKH-1) [1] = assay: Test on inhibiting function of wrinkles formation induced by ultraviolet rays (No. 2), Components (A) and (B) in combination; format: in vivo, mouse; parameters: scale not given here; details: 10% alone
Procedure: (§2) Hairless mice (SKH-1, female, 5-6 weeks old) were exposed to ultraviolet rays (UVB) three times/week (Monday, Wednesday and Friday) for 5 weeks, each at 50 to 100 mJ/cm^2 by using the above-described “Dermaray M-DMR-80” (ex Toshiba Medical Supply Co., Ltd.). The test compound (N,N′-diacetyl-L-cystine dimethyl ester) was dissolved in a mixed solvent of propylene glycol, ethanol and water, and was applied to the back portion of each of the mice in an amount of 100 μl, 30 to 60 minutes before exposure to ultraviolet rays, just after the completion of the exposure, and on the days free from exposure to ultraviolet rays (Sunday, Tuesday, Thursday and Saturday). From two weeks after the exposure had started, the wrinkles formed on the back portion of each mouse were evaluated once a week based on the below-described standards, and they were indicated as scores. In addition, the function of the inventive compound for inhibiting wrinkle formation induced by ultraviolet rays was judged based on the below-described judging standards.
Test on Inhibiting Function of Wrinkles Formation Induced by Ultraviolet Rays (No. 2)
Function of suppressing ultraviolet ray-induced wrinkles formation by the synergistic effects when Components (A) and (B) were used in combination, was judged in a similar manner to Test Example 2. Fifteen to twenty mice were divided into 4 groups, that is, a 1st group to which a mixed solvent of propylene glycol, ethanol and water was to be applied, a 2nd group to which a solution of only Component (A) dissolved in the above-described solvent was to be applied, a 3rd group to which a solution of only Component (B) dissolved in the above-described solvent was to be applied, and a 4th group to which a solution of both Components (A) and (B) dissolved in the above-described solvent was to be applied. An average score of each group was determined.

Hairless mice (SKH-1) [2] = assay: Test on suppressing function of wrinkles formation induced by ultraviolet rays (No. 1); format: in vivo, mouse; details: for Wrinkle score, individual mouse / Wrinkle score, Average: 10% applied; for Wrinkle score, individual mouse: score 0 to 5
Procedure: Test on Suppressing Function of Wrinkles Formation Induced by Ultraviolet Rays (No. 1)
as §2

AP-1 = assay: Test on the function of inhibiting the AP-1 activation induced by ultraviolet rays (gel shift assay); format: cell-based, human; details: single compound
Procedure: Test on the Function of Inhibiting the AP-1 Activation Induced by Ultraviolet Rays.
as §1
AP-1 activation inhibiting ratio (%)={1−(B1-B3)/(B2-B3)}×100 (2)
B1: radioactive value of the AP-1 band upon addition of a test compound.
B2: radioactive value of the AP-1 band when a test compound is not added.
B3: radioactive value of the AP-1 band when a test compound is not added and is not exposed to ultraviolet rays.

SMILES | Inhibition ratio (%) of NF-κB activation (NF-κB; addition concentration 0.5 mM) [%] | Inhibition ratio (%) of NF-κB activation (NF-κB; addition concentration 1 mM) [%] | Toxicity expressed (inhibition ratio) (human epidermal cells; addition concentration 5 mM, NF-κB test) | Inhibition ratio (%) of NF-κB activation (NF-κB; addition concentration 0.01 mM) [%] | Inhibition ratio (%) of NF-κB activation (NF-κB; addition concentration 0.1 mM) [%] | Wrinkle score (group average) (Hairless mice (SKH-1) [1]; 4th week) | Wrinkle score (group average) (Hairless mice (SKH-1) [1]; 5th week) | Wrinkle score, individual mouse (Hairless mice (SKH-1) [2]; 2nd week of UVB exposure) | Wrinkle score, Average (Hairless mice (SKH-1) [2]; 2nd week, solvent group 2.6) | Wrinkle score, individual mouse (Hairless mice (SKH-1) [2]; 3rd week of UVB exposure) | Wrinkle score, Average (Hairless mice (SKH-1) [2]; 3rd week, solvent group 3.6) | Wrinkle score, individual mouse (Hairless mice (SKH-1) [2]; 4th week of UVB exposure) | Wrinkle score, Average (Hairless mice (SKH-1) [2]; 4th week, solvent group 4.0) | Wrinkle score, individual mouse (Hairless mice (SKH-1) [2]; 5th week of UVB exposure) | Wrinkle score, Average (Hairless mice (SKH-1) [2]; 5th week, solvent group 4.4) | Effect on wrinkle formation induced by ultraviolet rays (in words) (Hairless mice (SKH-1) [2]; summary of Table 3) | AP-1 activation Inhibiting ratio (%) (AP-1; 10 μM) | Toxicity expressed (in inhibiting ratio column) (human epidermal cells; 100 μM, AP-1 test) | AP-1 activation Inhibiting ratio (%) (AP-1; 1 μM)
CCOC(=O)[C@@H](N)CS [L-cysteine ethyl ester] | 60 | 61 | Toxity | – | – | – | – | – | – | – | – | – | – | – | – | – | – | – | –
COC(=O)[C@H](CSSC[C@H](NC(C)=O)C(=O)OC)NC(C)=O [N,N′-diacetyl-L-cystine dimethyl ester] | – | – | – | 47 | 86 | 5.0 and 3.0 and 2.5 | 4.0 and 2.0 | 2 and 1 (4×) and 0 and 3 | 1.3 | 2 (5×) and 3 and 1 | 2.0 | 3 (3×) and 5 (2×) and 2 and 4 | 3.6 | 2 (3×) and 3 (3×) and 4 | 2.7 | exhibited effects for retarding and alleviating the wrinkle formation induced by ultraviolet rays | 4 | – | –
CC1=C(/C=C/C(C)=C/C=C/C(C)=C/C=C/C=C(C)/C=C/C=C(C)/C=C/C2=C(C)C(=O)[C@@H](O)CC2(C)C)C(C)(C)C[C@H](O)C1=O [astaxantin] | – | – | – | – | – | – | – | – | – | – | – | – | – | – | – | – | 0 | Toxicity | −54
